Values after ≈ are worked out from the molar mass of the structure shown.
Key:
MRSA = test: MIC by micro-dilution method, MRSA isolates; format: cell-based, Staphylococcus aureus; details: MRSA isolate 33591; examples of U.S. Pat. No. 6,878,691 for reference
Outline: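 CLSI M7-A7 broth microdilution with inoculum about 5×10^5 CFU/mL, in broth suited to each isolate. Plates incubated 24 h at 35±2 °C in ambient air. MIC is the lowest concentration without visible growth, judged by optical density.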

H. influenzae = test: MIC by micro-dilution method, H. influenzae isolates; format: cell-based, Haemophilus influenzae; details: for MIC H. influenzae 33929: H. influenzae isolate 33929; for MIC H. influenzae 33929 / MIC H. influenzae 49247: examples of U.S. Pat. No. 6,878,691 for reference; for MIC H. influenzae 49247: H. influenzae isolate 49247
Method: Susceptibility tests can be used to quantitatively measure the in vitro activity of an antimicrobial agent against a given bacterial isolate. Compounds are tested for in vitro antibacterial activity by a micro-dilution method. Minimal Inhibitory Concentration (MIC) is determined in 96 well microtiter plates utilizing the appropriate broth medium for the observed bacterial isolates. […] The diluted compounds (2 μl/well) are then transferred into sterile, uninoculated medium (0.2 mL) by use of a 96 fixed tip-pipetting station. The inoculum for each bacterial strain is standardized to approximately 5×10^5 CFU/mL by optical comparison to a 0.5 McFarland turbidity standard. The plates are inoculated with 10 μl/well of adjusted bacterial inoculum. The 96 well plates are covered and incubated at 35+/−2° C. for 24 hours in ambient air environment. Following incubation, plate wells are visually examined by Optical Density measurement for the presence of growth (turbidity). The lowest concentration of an antimicrobial agent at which no visible growth occurs is defined as the MIC.
All in vitro testing follows the guidelines described in the Approved Standards M7-A7 protocol, published by the Clinical Laboratory Standards Institute (CLSI).

Compound	MIC MRSA 33591 (MRSA) [µg/mL]	MIC H. influenzae 33929 (H. influenzae) [µg/mL]	MIC H. influenzae 49247 (H. influenzae) [µg/mL]	MIC (H. influenzae; H. influenzae 33929) [µg/mL]	MIC (H. influenzae; H. influenzae 49247) [µg/mL]
CC[C@H]1OC(=O)[C@H](C)C(=O)[C@H](C)[C@@H](O[C@@H]2O[C@H](C)C[C@H](N(C)C)[C@H]2O)[C@@]2(C)C[C@@H](C)C(=NC(C)=O)[C@H](C)[C@@H](OC/C(=N\OCc3ccc(-c4nnc(N)s4)nc3)CO2)[C@]1(C)O [Compound 234, reference compound]	>64	4 (≈ 4.58 µM)	4 (≈ 4.58 µM)		
CC[C@H]1OC(=O)[C@@](C)(F)C(=O)[C@H](C)[C@@H](O[C@@H]2O[C@H](C)C[C@H](N(C)C)[C@H]2O)[C@@]2(C)C[C@@H](C)C(=NC(C)=O)[C@H](C)[C@@H](OC/C(=N\OCc3ccc(-c4csnn4)cc3)CO2)[C@]1(C)O [Compound 219, reference compound]	32 (≈ 36.5 µM)	4 (≈ 4.57 µM)	4 (≈ 4.57 µM)		
CCNC(=O)c1cccc(-c2cc(CO/N=C3\CO[C@@H]4[C@@H](C)C(=NC(C)=O)[C@H](C)C[C@@](C)(OC3)[C@H](O[C@@H]3O[C@H](C)C[C@H](N(C)C)[C@H]3O)[C@@H](C)C(=O)[C@@H](C)C(=O)O[C@H](CC)[C@@]4(C)O)on2)n1 [Compound 195, reference compound]	>64	32 (≈ 35 µM)	32 (≈ 35 µM)		
CCC1OC(=O)C(C)C(=O)C(C)C(OC2OC(C)CC(N(C)C)C2O)C2(C)CC(C)C(=O)C(C)C(OCC(=NOCc3cnc(-c4cccc(N)n4)s3)CO2)C1(C)O (stereo not drawn) [Example 34]				2 (≈ 2.4 µM)	2 (≈ 2.4 µM)
CC[C@H]1OC(=O)[C@@](C)(F)C(=O)[C@H](C)[C@@H](O[C@@H]2O[C@H](C)C[C@H](N(C)C)[C@H]2O)[C@@]2(C)C[C@@H](C)C(=NC(C)=O)[C@H](C)[C@@H](OC/C(=N\OCc3ccc(-n4cccn4)nc3)CO2)[C@]1(C)O [Compound 214, reference compound]	64 (≈ 74.5 µM)	4 (≈ 4.66 µM)	8 (≈ 9.31 µM)		
CCC1OC(=O)C(C)C(=O)C(C)C(OC2OC(C)CC(N(C)C)C2O)C2(C)CC(C)C(=O)C(C)C(OCC(=NOCc3ccc(-c4nc(N)ns4)cc3)CO2)C1(C)O (stereo not drawn) [Example 44]				2 (≈ 2.4 µM)	1 (≈ 1.2 µM)
CCC(=O)N=C1C(C)CC2(C)OCC(=NOCc3cnc(-c4nsc(N)n4)cn3)COC(C1C)C(C)(O)C(CC)OC(=O)C(C)(F)C(=O)C(C)C2OC1OC(C)CC(N(C)C)C1O (stereo not drawn) [Example 67]				4 (≈ 4.41 µM)	2 (≈ 2.2 µM)
CCC1OC(=O)C(C)C(=O)C(C)C(OC2OC(C)CC(N(C)C)C2O)C2(C)CC(C)C(=NC(C)=O)C(C)C(OCC(=NOCc3coc(-c4cccc(N)n4)n3)CO2)C1(C)O (stereo not drawn) [Example 40]				2 (≈ 2.33 µM)	2 (≈ 2.33 µM)
CCC1OC(=O)C(C)(F)C(=O)C(C)C(OC2OC(C)CC(N(C)C)C2O)C2(C)CC(C)C(=O)C(C)C(OCC(=NOCc3nc(-c4cccc(N)n4)no3)CO2)C1(C)O (stereo not drawn) [Example 52]				1 (≈ 1.2 µM)	2 (≈ 2.4 µM)
CCC1OC(=O)C(C)(F)C(=O)C(C)C(OC2OC(C)CC(N(C)C)C2O)C2(C)CC(C)C(=O)C(C)C(OCC(=NOCc3ccc(-c4nc(N)cs4)cn3)CO2)C1(C)O (stereo not drawn) [Example 33]				4 (≈ 4.71 µM)	2 (≈ 2.35 µM)
CCC1OC(=O)C(C)C(=O)C(C)C(OC2OC(C)CC(N(C)C)C2O)C2(C)CC(C)C(=O)C(C)C(OCC(=NOCc3ncc(-c4cccc(N)n4)cn3)CO2)C1(C)O (stereo not drawn) [Example 50]				2 (≈ 2.42 µM)	2 (≈ 2.42 µM)
CCC1OC(=O)C(C)C(=O)C(C)C(OC2OC(C)CC(N(C)C)C2O)C2(C)CC(C)C(=O)C(C)C(OCC(=NOCc3nc(-c4cccc(N)n4)no3)CO2)C1(C)O (stereo not drawn) [Example 53]				1 (≈ 1.22 µM)	1 (≈ 1.22 µM)
CCC1OC(=O)C(C)C(=O)C(C)C(OC2OC(C)CC(N(C)C)C2O)C2(C)CC(C)C(=O)C(C)C(OCC(=NOCc3ccc(-c4csc(N)n4)cn3)CO2)C1(C)O (stereo not drawn) [Example 41]				2 (≈ 2.4 µM)	1 (≈ 1.2 µM)
CC[C@H]1OC(=O)[C@@](C)(F)C(=O)[C@H](C)[C@@H](O[C@@H]2O[C@H](C)C[C@H](N(C)C)[C@H]2O)[C@@]2(C)C[C@@H](C)C(=NC(C)=O)[C@H](C)[C@@H](OC/C(=N\OCc3ccc(-c4cnccn4)s3)CO2)[C@]1(C)O [Compound 141, reference compound]	32 (≈ 36.5 µM)	8 (≈ 9.13 µM)	8 (≈ 9.13 µM)		
CCC1OC(=O)C(C)(F)C(=O)C(C)C(OC2OC(C)CC(N(C)C)C2O)C2(C)CC(C)C(=O)C(C)C(OCC(=NOCc3ccc(-c4nc(N)ns4)cc3)CO2)C1(C)O (stereo not drawn) [Example 56]				2 (≈ 2.35 µM)	2 (≈ 2.35 µM)
CCC1OC(=O)C(C)(F)C(=O)C(C)C(OC2OC(C)CC(N(C)C)C2O)C2(C)CC(C)C(=NC(C)=O)C(C)C(OCC(=NOCc3ccn(-c4cccc(N)n4)n3)CO2)C1(C)O (stereo not drawn) [Example 59]				2 (≈ 2.29 µM)	2 (≈ 2.29 µM)

Compound	MIC MRSA 33591 (MRSA) [µg/mL]	MIC H. influenzae 33929 (H. influenzae) [µg/mL]	MIC H. influenzae 49247 (H. influenzae) [µg/mL]	MIC (H. influenzae; H. influenzae 33929) [µg/mL]	MIC (H. influenzae; H. influenzae 49247) [µg/mL]
CCC1OC(=O)C(C)(F)C(=O)C(C)C(OC2OC(C)CC(N(C)C)C2O)C2(C)CC(C)C(=O)C(C)C(OCC(=NOCc3cnc(-c4nc(N)ns4)cn3)CO2)C1(C)O (stereo not drawn) [Example 64]				2 (≈ 2.35 µM)	1 (≈ 1.17 µM)
CC[C@H]1OC(=O)[C@H](C)C(=O)[C@H](C)[C@@H](O[C@@H]2O[C@H](C)C[C@H](N(C)C)[C@H]2O)[C@@]2(C)C[C@@H](C)C(=NC(C)=O)[C@H](C)[C@@H](OC/C(=N\OCc3cnc(-n4cccn4)c(F)c3)CO2)[C@]1(C)O [Compound 259, reference compound]	>64	8 (≈ 9.31 µM)	8 (≈ 9.31 µM)		
CCC1OC(=O)C(C)(F)C(=O)C(C)C(OC2OC(C)CC(N(C)C)C2O)C2(C)CC(C)C(=O)C(C)C(OCC(=NOCc3ccc(-c4nc(N)no4)cc3)CO2)C1(C)O (stereo not drawn) [Example 38]				2 (≈ 2.4 µM)	4 (≈ 4.8 µM)
CC[C@H]1OC(=O)[C@H](C)C(=O)[C@H](C)[C@@H](O[C@@H]2O[C@H](C)C[C@H](N(C)C)[C@H]2O)[C@@]2(C)C[C@@H](C)C(=NC(C)=O)[C@H](C)[C@@H](OC/C(=N\OCc3ccc(-c4nccs4)nc3)CO2)[C@]1(C)O [Compound 212, reference compound]	64 (≈ 74.6 µM)	4 (≈ 4.66 µM)	8 (≈ 9.32 µM)		
CCC1OC(=O)C(C)C(=O)C(C)C(OC2OC(C)CC(N(C)C)C2O)C2(C)CC(C)C(=O)C(C)C(OCC(=NOCc3noc(-c4cccc(N)n4)n3)CO2)C1(C)O (stereo not drawn) [Example 54]				1 (≈ 1.22 µM)	1 (≈ 1.22 µM)
CCC1OC(=O)C(C)(F)C(=O)C(C)C(OC2OC(C)CC(N(C)C)C2O)C2(C)CC(C)C(=O)C(C)C(OCC(=NOCc3ccc(-n4ccc(N)n4)nc3)CO2)C1(C)O (stereo not drawn) [Example 49]				2 (≈ 2.4 µM)	2 (≈ 2.4 µM)
CCC1OC(=O)C(C)C(=O)C(C)C(OC2OC(C)CC(N(C)C)C2O)C2(C)CC(C)C(=O)C(C)C(OCC(=NOCc3ccc(-c4nc(N)no4)nc3)CO2)C1(C)O (stereo not drawn) [Example 51]				2 (≈ 2.45 µM)	2 (≈ 2.45 µM)
CCC1OC(=O)C(C)C(=O)C(C)C(OC2OC(C)CC(N(C)C)C2O)C2(C)CC(C)C(=O)C(C)C(OCC(=NOCc3ccn(-c4cccc(N)n4)n3)CO2)C1(C)O (stereo not drawn) [Example 58]				2 (≈ 2.45 µM)	2 (≈ 2.45 µM)
CCC1OC(=O)C(C)C(=O)C(C)C(OC2OC(C)CC(N(C)C)C2O)C2(C)CC(C)C(=O)C(C)C(OCC(=NOCc3ccc(-c4nc(N)cs4)cn3)CO2)C1(C)O (stereo not drawn) [Example 32]				2 (≈ 2.4 µM)	2 (≈ 2.4 µM)
CCC(=O)N=C1C(C)CC2(C)OCC(=NOCc3cnc(-c4cccc(N)n4)o3)COC(C1C)C(C)(O)C(CC)OC(=O)C(C)(F)C(=O)C(C)C2OC1OC(C)CC(N(C)C)C1O (stereo not drawn) [Example 65]				4 (≈ 4.5 µM)	1 (≈ 1.12 µM)
CCC1OC(=O)C(C)C(=O)C(C)C(OC2OC(C)CC(N(C)C)C2O)C2(C)CC(C)C(=NC(C)=O)C(C)C(OCC(=NOCc3cnc(-c4cccc(N)n4)o3)CO2)C1(C)O (stereo not drawn) [Example 70]				2 (≈ 2.33 µM)	2 (≈ 2.33 µM)
CCC1OC(=O)C(C)C(=O)C(C)C(OC2OC(C)CC(N(C)C)C2O)C2(C)CC(C)C(=O)C(C)C(OCC(=NOCc3ccc(-c4noc(N)n4)nc3)CO2)C1(C)O (stereo not drawn) [Example 62]				2 (≈ 2.45 µM)	2 (≈ 2.45 µM)
CCC1OC(=O)C(C)C(=O)C(C)C(OC2OC(C)CC(N(C)C)C2O)C2(C)CC(C)C(=NC(C)=O)C(C)C(OCC(=NOCc3ccc(-n4nnnc4N)cc3)CO2)C1(C)O (stereo not drawn) [Example 47]				2 (≈ 2.33 µM)	
CCC1OC(=O)C(C)C(=O)C(C)C(OC2OC(C)CC(N(C)C)C2O)C2(C)CC(C)C(=O)C(C)C(OCC(=NOCc3csc(-c4cccc(N)n4)n3)CO2)C1(C)O (stereo not drawn) [Example 71]				2 (≈ 2.4 µM)	
CCC1OC(=O)C(C)C(=O)C(C)C(OC2OC(C)CC(N(C)C)C2O)C2(C)CC(C)C(=O)C(C)C(OCC(=NOCc3ccc(-c4nsc(N)n4)cn3)CO2)C1(C)O (stereo not drawn) [Example 35]				2 (≈ 2.4 µM)	2 (≈ 2.4 µM)
CCC1OC(=O)C(C)C(=O)C(C)C(OC2OC(C)CC(N(C)C)C2O)C2(C)CC(C)C(=O)C(C)C(OCC(=NOCc3ccc(-c4nc(N)ns4)nc3)CO2)C1(C)O (stereo not drawn) [Example 61]				2 (≈ 2.4 µM)	2 (≈ 2.4 µM)
